Results published in US20250215039A1, “NUCLEOSIDES FOR TREATING CANCER” (PRIMEFOUR THERAPEUTICS, INC., priority 2022, published 2025).
Where two headings read alike, the source gives them in different places.

Tested on: cancer cell lines
Assay: Cancer cell proliferation activity (CellTiterGlo, 72 h)
Assay type: cell-based
Conditions: for IC50: 72 h, read-out: IC50
Summary of the method: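 Readout is CellTiterGlo luminescence after 72 h compound exposure (0.1% DMSO final), started one day post-seeding, at 37 °C.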

Nc1ccn([C@@H]2O[C@H](CO)[C@@H](O)C2(F)F)c(=O)n1 [gemcitabine, reference compound]
IC50 (5637 cell line (bladder)): 1.6 nM | IC50 (CLS439 cell line (bladder)): 3.5 nM | IC50 (HS729 cell line (muscle)): 3.6 nM | IC50 (HSS78T cell line): 3.8 nM | IC50 (JAR cell line (placenta)): 2 nM | IC50 (SKMELS cell line): 3.2 nM | IC50 (Homo sapiens, 22Rv1, 72 h, 22RV1 cell line (prostate)): 13 nM | IC50 (Homo sapiens, 786-0, 72 h, 786O cell line (kidney)): 4.1 nM | IC50 (Homo sapiens, A204, 72 h, A204 cell line (muscle)): 0.9 nM | IC50 (Homo sapiens, A549, 72 h, A549 cell line): 3.1 nM | IC50 (Homo sapiens, A673, 72 h, A673 cell line (bone)): 3.5 nM | IC50 (Homo sapiens, A2780, 72 h, A2780 cell line (ovary)): 2.4 nM | IC50 (Homo sapiens, A-375, 72 h, A375 cell line (skin)): 2.3 nM | IC50 (Homo sapiens, A-431, 72 h, A431 cell line (skin)): 2.3 nM | IC50 (Homo sapiens, ACHN, ACHN cell line (kidney)): 1.5 nM | IC50 (Homo sapiens, ASPC1, 72 h, ASPC1 cell line (pancreas)): 5.2 nM | IC50 (Homo sapiens, BT-20, 72 h, BT20 cell line (breast)): 7 nM | IC50 (Homo sapiens, BXPC-3, 72 h, BXPC3 cell line (pancreas)): 2.4 nM | IC50 (Homo sapiens, C-33-A, C33A cell line (cervical)): 4.4 nM | IC50 (Homo sapiens, CAKI-1, 72 h, CAKI1 cell line (kidney)): 2.7 nM | IC50 (Homo sapiens, COLO 205, 72 h, COLO205 cell line (colon)): 20.2 nM | IC50 (Homo sapiens, COLO-678, 72 h, COLO678 cell line (colon)): 5.3 nM | IC50 (Homo sapiens, Ca-Ski, CASKI cell line (cervical)): 5.9 nM | IC50 (Homo sapiens, Caco-2, 72 h, CACO2 cell line (colon)): 7 nM | IC50 (Homo sapiens, Calu-6, 72 h, CALU6 cell line (lung)): 6.1 nM | IC50 (Homo sapiens, DLD-1, 72 h, DLD1 cell line (colon)): 5.3 nM | IC50 (Homo sapiens, DU-145, 72 h, DU145 cell line (prostate)): 2.1 nM | IC50 (Homo sapiens, EFO-21, 72 h, EFO21 cell line (ovary)): 1.9 nM | IC50 (Homo sapiens, EJ-28, 72 h, EJ28 cell line (bladder)): 2.1 nM | IC50 (Homo sapiens, Granta-519, 72 h, GRANTA-519 cell line (hematological)): 0.5 nM | IC50 (Homo sapiens, HCT-15, 72 h, HCT15 cell line (colon)): 4.7 nM | IC50 (Homo sapiens, HCT-116, 72 h, HCT116 cell line (colon)): 2 nM | IC50 (Homo sapiens, HEK293, 72 h, HEK293 cell line (kidney)): 20.9 nM | IC50 (Homo sapiens, HL-60, 72 h, HL-60 cell line (hematological)): 2.2 nM | IC50 (Homo sapiens, HT-29, 72 h, HT29 cell line (colon)): 3.5 nM | IC50 (Homo sapiens, HT-1080, 72 h, HT1080 cell line (connective tissue)): 1.7 nM | IC50 (Homo sapiens, HeLa, HELA cell line (cervical)): 6 nM | IC50 (Homo sapiens, HepG2, 72 h, HEPG2 cell line (liver)): 2 nM | IC50 (Homo sapiens, IGROV-1, 72 h, IGROV1 cell line (ovary)): 4.8 nM | IC50 (Homo sapiens, IMR-90, 72 h, IMR.90 cell line): 2.6 nM | IC50 (Homo sapiens, J82, 72 h, J82 cell line (bladder)): 5.1 nM | IC50 (Homo sapiens, JEG-3, 72 h, JEG3 cell line (placenta)): 5.3 nM | IC50 (Homo sapiens, JIMT-1, 72 h, JIMT1 cell line (breast)): 0.9 nM | IC50 (Homo sapiens, K562, 72 h, K-562 cell line (hematological)): 14.2 nM | IC50 (Homo sapiens, Kasumi 1, 72 h, KASUMI-1 cell line (hematological)): 3.5 nM | IC50 (Homo sapiens, L-363, 72 h, L-363 cell line (hematological)): 3.4 nM | IC50 (Homo sapiens, LoVo, LOVO cell line (colon)): 2.3 nM | IC50 (Homo sapiens, MCF7, 72 h, MCF7 cell line (breast)): 4.1 nM | IC50 (Homo sapiens, MDA-MB-231, 72 h, MDAMB231 cell line (breast)): 0.9 nM | IC50 (Homo sapiens, MDA-MB-435, 72 h, MDAMB435 cell line (skin)): 2.8 nM | IC50 (Homo sapiens, MDA-MB-436, 72 h, MDAMB436 cell line (breast)): 1.8 nM | IC50 (Homo sapiens, MDA-MB-468, 72 h, MDAMB468 cell line (breast)): 1.9 nM | IC50 (Homo sapiens, MG-63, 72 h, MG63 cell line (bone)): 4.8 nM | IC50 (Homo sapiens, MHH-ES-1, 72 h, MHHES1 cell line (bone)): 2 nM | IC50 (Homo sapiens, MIA PaCa-2, 72 h, MIAPACA2 cell line (pancreas)): 6.8 nM | IC50 (Homo sapiens, MINO, MINO cell line (hematological)): 0.3 nM | IC50 (Homo sapiens, MV4-11, 72 h, MV4-11 cell line (hematological)): 1.1 nM | IC50 (Homo sapiens, NCI-H23, 72 h, NCI-H23 cell line (lung)): 1.1 nM | IC50 (Homo sapiens, NCI-H82, 72 h, NCIH82 cell line (lung)): 7.6 nM | IC50 (Homo sapiens, NCI-H292, 72 h, NCIH292 cell line (lung)): 4.4 nM | IC50 (Homo sapiens, NCI-H460, 72 h, NCIH460 cell line (lung)): 5 nM | IC50 (Homo sapiens, OVCAR-3, 72 h, OVCAR3 cell line (ovary)): 3.1 nM | IC50 (Homo sapiens, OVCAR-4, 72 h, OVCAR4 cell line (ovary)): 4.9 nM | IC50 (Homo sapiens, PANC-1, 72 h, PANC1 cell line (pancreas)): 9.7 nM | IC50 (Homo sapiens, PC-3, 72 h, PC3 cell line (prostate)): 2.6 nM | IC50 (Homo sapiens, PLC-PRF-5, 72 h, PLCPRF5 cell line (liver)): 9.2 nM | IC50 (Homo sapiens, Panc1005, 72 h, PANC1005 cell line (pancreas)): 7.9 nM | IC50 (Homo sapiens, RD, RD cell line (muscle)): 2.3 nM | IC50 (Homo sapiens, Ramos, RAMOS cell line (hematological)): 0.6 nM | IC50 (Homo sapiens, SAOS-2, 72 h, SAOS2 cell line (bone)): 0.5 nM | IC50 (Homo sapiens, SF-268, 72 h, SF268 cell line (brain)): 4.1 nM | IC50 (Homo sapiens, SF-295, 72 h, SF295 cell line (brain)): 3.3 nM | IC50 (Homo sapiens, SK-BR-3, 72 h, SKBR3 cell line (breast)): 0.6 nM | IC50 (Homo sapiens, SK-HEP1, 72 h, SKHEP1 cell line (liver)): 4.7 nM | IC50 (Homo sapiens, SK-LMS-1, 72 h, SKLMS1 cell line (uterus)): 4.1 nM | IC50 (Homo sapiens, SK-MEL-28, 72 h, SKMEL28 cell line (skin)): 4.3 nM | IC50 (Homo sapiens, SK-N-AS, SKNAS cell line (brain)): 3.6 nM | IC50 (Homo sapiens, SK-N-SH, SKNSH cell line (brain)): 3.3 nM | IC50 (Homo sapiens, SK-OV-3, 72 h, SKOV3 cell line (ovary)): 23.7 nM | IC50 (Homo sapiens, SNB-75, 72 h, SNB75 cell line (brain)): 5.3 nM | IC50 (Homo sapiens, SU-DHL10, 72 h, SU-DHL-10 cell line (hematological)): 4.1 nM | IC50 (Homo sapiens, SU-DHL-6, 72 h, SU-DHL-6 cell line (hematological)): 6.8 nM | IC50 (Homo sapiens, SW-620, 72 h, SW620 cell line (colon)): 3 nM | IC50 (Homo sapiens, T-24, 72 h, T24 cell line (bladder)): 1.4 nM | IC50 (Homo sapiens, TE-671, 72 h, TE671 cell line (muscle)): 8.3 nM | IC50 (Homo sapiens, THP-1, 72 h, THP-1 cell line (hematological)): 1.1 nM | IC50 (Homo sapiens, U2OS, U2OS cell line (bone)): 5.7 nM | IC50 (Homo sapiens, U-87 MG, U87MG cell line (brain)): 1.5 nM | IC50 (Homo sapiens, UMUC3, 72 h, UMUC3 cell line (bladder)): 4.3 nM | IC50 (Homo sapiens, UO-31, 72 h, UO31 cell line (kidney)): 3.7 nM | IC50 (Homo sapiens, WSU-NHL, WSU-NHL cell line (hematological)): 4.5 nM | IC50 (MT-3, 72 h, MT3 cell line (breast)): 0.9 nM | IC50 (NCI-H358M, NCIH358M cell line (lung)): 3.5 nM | IC50 (PBMC, PBMC (hematological)): 12300 nM | IC50 (RD-ES, RDES cell line (bone)): 3.7 nM | cytotoxicity against a panel of cell lines (waterfall plot) (panel of cancer and non-cancer cell lines, figure legends FIG. 1-3): indiscriminately cytotoxic
